In US20220251218A1, “PHARMACEUTICAL COMBINATION AND METHOD FOR OVERCOMING IMMUNE SUPPRESSION OR STIMULATING IMMUNE RESPONSE AGAINST CANCER” (GNT BIOTECH & MEDICALS CORPORATION, priority 2021, published 2022):
Values joined by “and” are separate entries in the source; they are usually repeats but may differ in a detail not shown here. Equal entries are not always repeated. Where two headings read alike, the source gives them in different places.

Tests used:
[1] = tested on: CT26 tumor; conditions: for ORR (%): 3 days after end of treatment; for Relapse (recurrence): tumor growth at least 5 fold in mice with CR or PR; for CR / PD / PR: number of mice
Procedure: Anti-Colorectal Cancer Activity in Animal Models. Animal study was approved and overseen by The Taipei Medical University Institutional Animal Care and Use Committee (TMU IACUC, NO: LAC-2020-0103, LAC-2019-0644). Six- to eight-week-old male Balb/c mice (National Laboratory Animal Center, Taiwan) were used for all animal experiments. CT26 cell line was purchased from ATCC. CT26 tumor cell lines were grown in RPMI-1640 supplemented with 10% (vol/vol) FBS at 37° C., 5% CO2. Tumors were established by s.c. injection of 1×10^6 CT26 cells with Matrigel (354248, Corning®) into the left flank of mice, and growth determined by measuring two perpendicular diameters. Tumors were allowed to grow for 8-12 days (tumor size about 110-250 mm^3) before randomization and treatment. Animals were euthanized when tumors reached more than 3000 mm^3 in volume. An anti-IgG antibody (BE0089, Lot #716719J3, Bio X Cell), anti-PD-1 antibody (BE0146, Lot #717918D1, Lot #735019J3, Lot #780120J3, Lot #73501901, Bio X Cell), anti-PD-L1 antibody (BE0101, Lot #720619F1, Bio X Cell) and anti-CTLA-4 antibody (BE0164, Lot #702418A2B, Bio X Cell) were administered i.p. at 2.5 mg/kg twice a week for three weeks. All antibodies were diluted to appropriate concentrations in 100 μL of sterile PBS (pH 7.4, Invitrogen Life Technologies). Axitinib (HY-10065, 30 mg/kg, po daily, MedChemExpress USA), Lenvatinib (HY-10981, 10 mg/kg, po daily, MedChemExpress USA), Olaparib (HY-10162, 50 mg/kg, po daily, MedChemExpress USA), Ibrutinib (HY-10997, 6 mg/kg, po daily, MedChemExpress USA), Cabozantinib (HY-13016, 30 mg/kg, po daily, MedChemExpress USA), Regorafenib (HY-1031, 30 mg/kg, po daily, MedChemExpress USA), RMC-4550 (HY-116009, 30 mg/kg, po daily, MedChemExpress USA), Sitravatinib (HY-16961, 20 mg/kg, po daily, MedChemExpress USA), Entinostat (HY-12163, 20 mg/kg, po q2d, MedChemExpress USA), Vorinostat (HY-10221, 150 mg/kg, po daily, MedChemExpress USA), Chidamide-k30 or Chidamide-HCl salt (50 mg/kg, po daily, produced from GNTbm, Taipei, Taiwan), Celecoxib (50 mg/kg, po daily, capsule/Celebrex®, Pfizer Pharmaceuticals LLC) were given for 16 days. Axitinib, Lenvatinib, Olaparib, Ibrutinib, Cabozantinib, Regorafenib, Entinostat, Vorinostat, RMC-4550, Sitravatinib and Celecoxib were dissolved in DMSO and diluted in PBS before administration. Chidamide-k30 and Chidamide-HCl salt were dissolved in water. Animals were euthanized when tumors reached more than 3000 mm^3 in volume. The anti-cancer activity was measured from the start of the treatment until the tumor volume reached 3,000 mm^3. Tumor volume was calculated as length×width^2×0.5. In this study, we defined Complete Response (CR, <0.5 time tumor growth in the tumor bearing mice at three days after the end of treatment); Partial Response (PR, tumor size ≥0.5 time tumor growth, but <1 times tumor growth in the tumor bearing mice at three days after the end of treatment); Stable Disease (SD, tumor size ≥1 time tumor growth, but <5 times tumor growth in the tumor bearing mice at three days after the end of treatment); Progressive Disease (PD, tumor size ≥5 times tumor growth in tumor bearing mice at three days after the end of treatment) for the evaluation of treatment efficacy. The recurrence was defined as when having tumor growth at least 5 fold in mice with CR or PR response after first tumor assessment.
Survival Rate in Animal Models. After tumor assessment the tumor volume of the mice was measured once every three or four days (twice/week). The tumor-bearing mice were regarded as dead when the tumor volume reached 3,000 mm^3. All treatment groups were recorded and analyzed.

[2] = tested on: CT26 cells; assay: Tumor rechallenge with CT26 cells in mice with PR/CR response (immunity); assay type: in vivo, Balb/c mice; conditions: for Immunity (rechallenge): mice resistant to CT26 re-challenge
Procedure: Tumor Rechallenges in Animal Models. All mice with PR/CR response after treatment were rechallenged with CT26 cells on the contralateral side (please see FIG. 6(F)). The rechallenge with CT26 was performed on day 34±2, which was 7 days […] after first tumor assessment (day 27±2), with injection of 5×10^6 CT26 cells per mouse. After rechallenge with CT26 cells, tumors were allowed to grow for another 7 days (day 41±2) to determine the baseline as 1 fold. After further 10 days (day 51±2), the tumor growth was evaluated for the rechallenge. If two of the following criteria are met, the response will be considered as rechallenge-induced recurrence/relapse: first, the tumor size over 2 folds when compared to that of baseline on day 41±2; second, the tumor volume on day 51±2 was over 300 mm^3. Relapse happens when immunity is not sufficiently activated. If the tumor growth is inhibited, it means the immunity is activated.
We were interested in researching more powerful regimens to regulate the TME for boosting the immune response rate. First, we were to evaluate the Lenvatinib and Lenvatinib combined with anti-PD-1 Ab in CT26-bearing mice model. […] CT26 tumor-bearing mice were euthanized when tumor volume reached 3000 mm^3 after tumor implantation. […] Next, we were interested to evaluate immunity stimulated by different treatments in a rechallenge experiment as outlined in FIG. 6(F). The mice with CR or PR went into a wash-out stage of 7 days (until day 34±2) without any further treatment. Then rechallenge was performed with the same kind of cancer cells (CT26; 5×10^6) inoculated on the opposite flank for about another 7 days (day 41±2) and then the tumor volume would be determined as baseline (1 fold). The rechallenge tumor was allowed to grow for 10 days, and then assessed to evaluate the tumor growth (day 51±2). The immunity was defined as negative, when it met two conditions: the tumor volume was over 300 mm^3, or the tumor size was over 2 fold when compared to baseline. […] If the immune memory was not induced or not fully activated, resulting in the growth of tumors inoculated during the rechallenge (tumor recurrence), then the immunity would be defined as negative. […] The rechallenge experiment was used to re-confirm whether the regimens have stimulated the immune system's ability to activate immune memory directly or indirectly.

[3] = FIG. 9, initial tumor volume 251 mm^3

CNC(=O)c1ccccc1Sc1ccc2c(/C=C/c3ccccn3)n[nH]c2c1 [Axitinib] was tested, and the “Survival Rate (%)” value ([1]; FIG. 9) was 38%, the “ORR (%)” value [1, 3] was 37.5% and 38% and the “Relapse (recurrence)” value ([1]; FIG. 9) was 0%. It also gave a CR ([1]; FIG. 9) of 3, a PD ([1]; FIG. 9) of 4 and a PR ([1]; FIG. 9) of 0.

COc1cc2nccc(Oc3ccc(NC(=O)C4(C(=O)Nc5ccc(F)cc5)CC4)cc3)c2cc1OC [Cabozantinib] was tested, and the “Survival Rate (%)” value ([1]; FIG. 9) was 14%, the “ORR (%)” value [1, 3] was 43% and the “Relapse (recurrence)” value ([1]; FIG. 9) was 67%. The CR ([1]; FIG. 9) was 3, the PD ([1]; FIG. 9) was 2 and the PR ([1]; FIG. 9) was 0. For the same molecule, the “Immunity (rechallenge)” value ([2]; FIG. 9) was 100%.

In the case of COc1cc2nccc(Oc3ccc(NC(=O)NC4CC4)c(Cl)c3)c2cc1C(N)=O [Lenvatinib], the “Survival Rate (%)” value ([1]; FIG. 6) was 10%, the “ORR (%)” value ([1]; FIG. 6, initial tumor volume 190 mm^3) was 30% and the “Relapse (recurrence)” value ([1]; FIG. 6) was 67%. For the same molecule, the “Survival Rate (%)” value ([1]; FIG. 9) was 0%, the “ORR (%)” value [1, 3] was 12.5% and 13% and the “Relapse (recurrence)” value ([1]; FIG. 9) was 100%. For the same molecule, the body weight ([1]; mouse, in vivo) was “mildly reduced”, the CR ([1]; FIG. 6) was 1 and the PD ([1]; FIG. 6) was 2. The PR ([1]; FIG. 6) was 2, the CR ([1]; FIG. 9) was 0 and the PD ([1]; FIG. 9) was 2. For the same molecule, the PR ([1]; FIG. 9) was 1, the “tumor recurrence after the rechallenge” value ([2]; FIG. 6(G), mice that achieved CR/PR) was 33% and the “Immunity (rechallenge)” value ([2]; FIG. 6, overall immune memory) was 67%.

For CNC(=O)c1cc(Oc2ccc(NC(=O)Nc3ccc(Cl)c(C(F)(F)F)c3)c(F)c2)ccn1 [Regorafenib], the “Survival Rate (%)” value ([1]; FIG. 9) was 13%, the “ORR (%)” value [1, 3] was 25% and the “Relapse (recurrence)” value ([1]; FIG. 9) was 50%. For the same molecule, the CR ([1]; FIG. 9) was 2, the PD ([1]; FIG. 9) was 2 and the PR ([1]; FIG. 9) was 0. The “Immunity (rechallenge)” value ([2]; FIG. 9) was 50%.
